Measurements taken from ChEMBL document CHEMBL1123022, “S-(nitrocarbobenzoxy)glutathiones: potent competitive inhibitors of mammalian glyoxalase II” (J Med Chem, 1985).

Tests used:
[1] = molecular target: Hydroxyacylglutathione hydrolase, mitochondrial (Rattus norvegicus, UniProt O35952); assay: Binding affinity towards rat liver glyoxalase II
[2] = molecular target: Hydroxyacylglutathione hydrolase, mitochondrial (Rattus norvegicus) (UniProt O35952); assay: […] inhibitory activity against rat liver glyoxalase II
[3] = molecular target: T1, Lactoylglutathione lyase (Rattus norvegicus) (UniProt Q6P7Q4); assay: […] inhibitory activity against rat liver glyoxalase I
T1 sequence (whole entry): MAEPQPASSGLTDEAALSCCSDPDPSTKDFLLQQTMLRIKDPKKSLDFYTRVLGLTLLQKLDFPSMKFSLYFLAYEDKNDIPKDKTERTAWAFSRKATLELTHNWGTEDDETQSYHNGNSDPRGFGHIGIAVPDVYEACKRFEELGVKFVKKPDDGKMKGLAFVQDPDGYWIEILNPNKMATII

| SMILES | Ki [1] [µM] | [I] 0.5 [2] [µM] | [I] 0.5 [3] [µM] |
| --- | --- | --- | --- |
| NC(CCC(=O)NC(CSC(=O)OCc1ccccc1)C(=O)NCC(=O)O)C(=O)O (centres undefined) | 65 | 165 |  |
| NC(CCC(=O)NC(CSC(=O)OCc1ccc([N+](=O)[O-])cc1)C(=O)NCC(=O)O)C(=O)O (centres undefined) | 6.5 | 12 | 925 |
| NC(CCC(=O)NC(CSC(=O)OCc1cccc([N+](=O)[O-])c1)C(=O)NCC(=O)O)C(=O)O (centres undefined) | 9 | 15 |  |
| NC(CCC(=O)NC(CSC(=O)OCc1ccccc1[N+](=O)[O-])C(=O)NCC(=O)O)C(=O)O (centres undefined) | 15 | 20 |  |
